Measurements reported in PubChem BioAssay AID1963429 (Molecular Pharmacology Branch, DTP, NCI, 2024).

Tested on: 126254-015-R-J1-PDC complex spheroid growth, % test/control
Assay: Anticancer human tumor 126254-015-R-J1-PDC patient-derived soft tissue sarcoma cell line growth inhibition [Asc]
Details: for IC50: curve of first compound; for viability, T/C: stronger effect = lower value
Method: Multicellular complex tumor spheroid response to apoptosis pathway targeting inhibitors Alrizomadlin, Pelcitoclax, and Dasminapant in combination with a variety of drugs and investigational agents in selected tumor cell lines
The MDM2 inhibitor alrizomadlin, the Bcl-2/Bcl-xL inhibitor pelcitoclax, and the IAPs inhibitor dasminapant were evaluated both individually and in combination with standard of care and investigational anticancer small molecules within a complex spheroid model of solid tumors. . Complex spheroids include a stromal component modeled by human endothelial cells (HUVEC) and fibroblasts modeled by human mesenchymal stem cells (MSCs). The concentration ranges selected for each drug and investigational agent were based upon clinically achievable concentrations if the clinical Cmax of the agent was known.
Compounds. The drugs and investigational agents: alrizomadlin (APG-115; NSC831270), pelcitoclax (APG-1252; NSC835773), dasminapant (APG-1387;NSC834197), TAK-243 (NSC785004), copanlisib (NSC809693), olaparib (NSC753686), talazoparib (NSC767125), cobimetinib (NSC 768068), eltanexor (KPT-8602, NSC 794443), abemaciclib (NSC 768073), sotorasib (NSC818433), adagrasib (NSC 831453), MRTX-1133 (NSC 836407), Iadademestat (ORY1001, NSC 806812), and RMC-4630 (NSC839698), were obtained from the NCI Developmental Therapeutics Program Chemical Repository. The FDA-approved anticancer drug set is available from the Developmental Therapeutics Program at https://dtp.cancer.gov/organization/dscb/obtaining/available plates.htm. […] The stock solutions were prepared in dimethyl sulfoxide (DMSO, Sigma-Aldrich, St. Louis, MO, cat. D2650) at 800-fold the tested concentration and stored at -70 degrees C prior to their use. All drugs and investigational agents were tested over a range starting from a high concentration at or near the clinical Cmax and decreasing in half-log increments. If the clinical Cmax for an agent had not been determined, the highest concentration tested was 10 microM.
The patient-derived cancer (PDC) cell lines include five colon adenocarcinomas: 186277-243-T-J2-PDC, 616215-338-R-J1-PDC, 439559-082-T-J2-PDC, 463943-066-T-J2-PDC, and 519858-162-T-J1-PDC; three pancreatic carcinomas: 323965-272-R-J2-PDC, 521955-158-R6-J3-PDC, and 521955-158-R2-J5-PDC; two uterine sarcomas: 327498-152-R-J2-PDC and 993429-296-R-J1-PDC; two rhabdomyosarcomas: 755483-174-R-J1-PDC and 772245-204-R-J1-PDC; two soft tissue sarcomas: 126254-015-R-J1-PDC and 494315-158-R-J1-PDC; two malignant fibrous histiocytomas: 317291-083-R-J1-PDC and 596521-263-R-J1-PDC; two breast carcinomas: 171881-019-R-J1-PDC and 885512-296-R-J2-PDC; and one ovarian carcinoma: 6556581-035-R-J-PDC were obtained from the NCI PDMR, (https://pdmr.cancer.gov). The established cell lines HSSY-2 synovial sarcoma (RRID:CVCL 8719), SYO-1 synovial sarcoma (RRID:CVCL_7146), MPNST malignant peripheral neural sheath tumor were obtained from the Sloan Kettering Institute. The following established cell lines were purchased from the American Type Culture Collection (ATCC, Manassas, VA), Sor the received from the NCI repository:, PANC-1 pancreatic carcinoma (CRL-1469, RRID:CVCL_0480), OVCAR-5 ovarian carcinoma (RRID:CVCL_1628), OVCAR-8 ovarian carcinoma (RRID:CVCL_1629), , MCF-7 breast carcinoma (CRL-12584, RRID:CVCL_0031), MDA-MB-231 breast carcinoma (CRL-12532, RRID:CVCL_0062), NCI-H1876 small cell lung carcinoma (CRL-5902, RRID:CVCL_1503), NCI-H510A small cell lung carcinoma (HTB-184, RRID:CVCL_1565), NCI-H1417 (CRL-5869, RRID:CVCL_1469), and NCI-H196 small cell lung carcinoma (CRL-5823, RRID:CVCL_1509). Dr. Peter Houghton (Greehey Children's Cancer Research Institute, University of Texas Health Science Center, San Antonio, TX) provided Rh-18 rhabdomyosarcoma (RRID:CVCL_1659). Pooled donor human umbilical vein endothelial cells (HUVEC, Lonza, cat. CC-2519) and human mesenchymal stem cells (hMSC, Lonza, cat. PT-2501) were purchased from Lonza (Walkersville, MD).
Cell Culture. […]

[1] = second compound 0.03 µM, first compound 0.00316 µM
[2] = second compound 0.03 µM, first compound 0.01 µM
[3] = second compound 0.03 µM, first compound 0.0316 µM
[4] = second compound 0.03 µM, first compound 0.1 µM
[5] = second compound 0.0949 µM, first compound 0.00316 µM
[6] = second compound 0.0949 µM, first compound 0.01 µM
[7] = second compound 0.0949 µM, first compound 0.0316 µM
[8] = second compound 0.0949 µM, first compound 0.1 µM
[9] = second compound 0.3 µM, first compound 0.00316 µM
[10] = second compound 0.3 µM, first compound 0.01 µM
[11] = second compound 0.3 µM, first compound 0.0316 µM
[12] = second compound 0.3 µM, first compound 0.1 µM
[13] = second compound 0.949 µM, first compound 0.00316 µM
[14] = second compound 0.949 µM, first compound 0.01 µM
[15] = second compound 0.949 µM, first compound 0.0316 µM
[16] = second compound 0.949 µM, first compound 0.1 µM
[17] = second compound 3 µM, first compound 0.00316 µM
[18] = second compound 3 µM, first compound 0.01 µM
[19] = second compound 3 µM, first compound 0.0316 µM
[20] = second compound 3 µM, first compound 0.1 µM
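Note: spheroids exposed to compound for seven days.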
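Throughout, for viability, T/C: 100% = DMSO vehicle control wells.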

`CCN1CCN(Cc2ccc(Nc3ncc(F)c(-c4cc(F)c5nc(C)n(C(C)C)c5c4)n3)nc2)CC1` + CCN1C(C(=O)NC23CCC(C(=O)O)(CC2)CC3)C(c2cccc(Cl)c2F)C2(C(=O)Nc3cc(Cl)ccc32)C12CCCCC2 was tested, and the IC50 (second compound 0.03 µM) was > 1000 nM, the IC50 (second compound 0.0949 µM) was > 1000 nM and the IC50 (second compound 0.3 µM) was > 1000 nM. For the same compound, the IC50 (second compound 0.949 µM) was > 1000 nM, the IC50 (second compound 3 µM) was > 1000 nM and the viability, T/C [1] was 87.6%. It also gave a viability, T/C [2] of 93.2%, a viability, T/C [3] of 99.5% and a viability, T/C [4] of 91.3%. For the same compound, the viability, T/C (second compound 0.03 µM, first compound 0.316 µM) was 105%, the viability, T/C (second compound 0.03 µM, first compound 1 µM) was 109% and the viability, T/C [5] was 91.2%. It also gave a viability, T/C [6] of 94.9%, a viability, T/C [7] of 97% and a viability, T/C [8] of 102%. The viability, T/C (second compound 0.0949 µM, first compound 0.316 µM) was 91.3%, the viability, T/C (second compound 0.0949 µM, first compound 1 µM) was 109% and the viability, T/C [9] was 89%. It also gave a viability, T/C [10] of 96.9%, a viability, T/C [11] of 96.6% and a viability, T/C [12] of 89.8%. For the same compound, the viability, T/C (second compound 0.3 µM, first compound 0.316 µM) was 101%, the viability, T/C (second compound 0.3 µM, first compound 1 µM) was 105% and the viability, T/C [13] was 99.5%. For the same compound, the viability, T/C [14] was 98.3%, the viability, T/C [15] was 92.2% and the viability, T/C [16] was 88.8%. The viability, T/C (second compound 0.949 µM, first compound 0.316 µM) was 122%, the viability, T/C (second compound 0.949 µM, first compound 1 µM) was 113% and the viability, T/C [17] was 96.1%. The viability, T/C [18] was 93.8%, the viability, T/C [19] was 96.3% and the viability, T/C [20] was 94.7%. For the same compound, the viability, T/C (second compound 3 µM, first compound 0.316 µM) was 106% and the viability, T/C (second compound 3 µM, first compound 1 µM) was 104%.

In the case of `NC(=O)C(=Cn1cnc(-c2cc(C(F)(F)F)cc(C(F)(F)F)c2)n1)c1cncnc1` + CCN1C(C(=O)NC23CCC(C(=O)O)(CC2)CC3)C(c2cccc(Cl)c2F)C2(C(=O)Nc3cc(Cl)ccc32)C12CCCCC2, the IC50 (second compound 0.03 µM) is reported as 66.2 nM, the IC50 (second compound 0.0949 µM) is reported as 49.3 nM and the IC50 (second compound 0.3 µM) is reported as 43.9 nM. The IC50 (second compound 0.949 µM) was 49.5 nM, the IC50 (second compound 3 µM) was 67 nM and the viability, T/C (second compound 0.03 µM, first compound 0.000949 µM) was 93.9%. For the same compound, the viability, T/C (second compound 0.03 µM, first compound 0.003 µM) was 87.4%, the viability, T/C (second compound 0.03 µM, first compound 0.00949 µM) was 79.4% and the viability, T/C (second compound 0.03 µM, first compound 0.03 µM) was 77.8%. The viability, T/C (second compound 0.03 µM, first compound 0.0949 µM) was 37.5%, the viability, T/C (second compound 0.03 µM, first compound 0.3 µM) was 19.6% and the viability, T/C (second compound 0.0949 µM, first compound 0.000949 µM) was 102%. The viability, T/C (second compound 0.0949 µM, first compound 0.003 µM) was 90.5%, the viability, T/C (second compound 0.0949 µM, first compound 0.00949 µM) was 78.6% and the viability, T/C (second compound 0.0949 µM, first compound 0.03 µM) was 61.3%. For the same compound, the viability, T/C (second compound 0.0949 µM, first compound 0.0949 µM) was 35.8%, the viability, T/C (second compound 0.0949 µM, first compound 0.3 µM) was 14% and the viability, T/C (second compound 0.3 µM, first compound 0.000949 µM) was 90.1%. For the same compound, the viability, T/C (second compound 0.3 µM, first compound 0.003 µM) was 102%, the viability, T/C (second compound 0.3 µM, first compound 0.00949 µM) was 83% and the viability, T/C (second compound 0.3 µM, first compound 0.03 µM) was 53.1%. The viability, T/C (second compound 0.3 µM, first compound 0.0949 µM) was 39.3%, the viability, T/C (second compound 0.3 µM, first compound 0.3 µM) was 17.5% and the viability, T/C (second compound 0.949 µM, first compound 0.000949 µM) was 96.5%. It also gave a viability, T/C (second compound 0.949 µM, first compound 0.003 µM) of 87.4%, a viability, T/C (second compound 0.949 µM, first compound 0.00949 µM) of 96.1% and a viability, T/C (second compound 0.949 µM, first compound 0.03 µM) of 64.2%. For the same compound, the viability, T/C (second compound 0.949 µM, first compound 0.0949 µM) was 31.6%, the viability, T/C (second compound 0.949 µM, first compound 0.3 µM) was 21% and the viability, T/C (second compound 3 µM, first compound 0.000949 µM) was 102%. It also gave a viability, T/C (second compound 3 µM, first compound 0.003 µM) of 99.3%, a viability, T/C (second compound 3 µM, first compound 0.00949 µM) of 87.7% and a viability, T/C (second compound 3 µM, first compound 0.03 µM) of 70.2%. For the same compound, the viability, T/C (second compound 3 µM, first compound 0.0949 µM) was 41.1% and the viability, T/C (second compound 3 µM, first compound 0.3 µM) was 19.6%.

`NC1CCC(NC2CC2c2ccccc2)CC1` (stereo not given) + CCN1C(C(=O)NC23CCC(C(=O)O)(CC2)CC3)C(c2cccc(Cl)c2F)C2(C(=O)Nc3cc(Cl)ccc32)C12CCCCC2 was tested, and the IC50 (second compound 0.03 µM) was > 100 nM, the IC50 (second compound 0.0949 µM) was > 100 nM and the IC50 (second compound 0.3 µM) was > 100 nM. The IC50 (second compound 0.949 µM) was > 100 nM, the IC50 (second compound 3 µM) was > 100 nM and the viability, T/C (second compound 0.03 µM, first compound 0.000316 µM) was 94.7%. For the same compound, the viability, T/C (second compound 0.03 µM, first compound 0.001 µM) was 97.4%, the viability, T/C [1] was 99.1% and the viability, T/C [2] was 93.1%. For the same compound, the viability, T/C [3] was 79.7%, the viability, T/C [4] was 83.1% and the viability, T/C (second compound 0.0949 µM, first compound 0.000316 µM) was 85.6%. The viability, T/C (second compound 0.0949 µM, first compound 0.001 µM) was 81%, the viability, T/C [5] was 93% and the viability, T/C [6] was 83.5%. For the same compound, the viability, T/C [7] was 75.5%, the viability, T/C [8] was 85.9% and the viability, T/C (second compound 0.3 µM, first compound 0.000316 µM) was 87.3%. It also gave a viability, T/C (second compound 0.3 µM, first compound 0.001 µM) of 89.4%, a viability, T/C [9] of 82.7% and a viability, T/C [10] of 79.7%. The viability, T/C [11] was 78.3%, the viability, T/C [12] was 88.4% and the viability, T/C (second compound 0.949 µM, first compound 0.000316 µM) was 90.1%. It also gave a viability, T/C (second compound 0.949 µM, first compound 0.001 µM) of 92.3%, a viability, T/C [13] of 97% and a viability, T/C [14] of 82.5%. The viability, T/C [15] was 81.5%, the viability, T/C [16] was 83.7% and the viability, T/C (second compound 3 µM, first compound 0.000316 µM) was 90%. For the same compound, the viability, T/C (second compound 3 µM, first compound 0.001 µM) was 96.9%, the viability, T/C [17] was 78.1% and the viability, T/C [18] was 74.5%. The viability, T/C [19] was 84.1% and the viability, T/C [20] was 85.2%.
